Laboratory results published in the supplement of paper PMC10307832.

What was measured:
Test in all cases: relative viability (nuclei count vs DMSO), 5 days (fraction); higher = more cells survive
[1] = compound: COc1cc2ncn(-c3cc(OCc4ccccc4C(F)(F)F)c(C(N)=O)s3)c2cc1OC
Method in brief: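 Lung cancer cell lines were seeded into 1536-well plates, kept overnight at 37 °C and pinned with five library-drug doses (not always all listed) spaced by √10. After 5 days, nuclei were Hoechst-stained, imaged at 4× and counted with MetaXpress. Viability is treated-well nuclei over vehicle-well nuclei, taken as a median across plates. Plates needed control CV below 25% and at least one doubling.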

[2] = compound: COc1cc2ncn(-c3cc(OCc4ccccc4C(F)(F)F)c(C(N)=O)s3)c2cc1OC + Cc1cc(Nc2cc(N3CCN(C)CC3)nc(Sc3ccc(NC(=O)C4CC4)cc3)n2)n[nH]1 [Tozasertib] (partner 0.1 µM)
Method in brief: (§1)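 Relative viability divides the nuclei count in treated wells by that in vehicle wells. Lung cancer cell lines were seeded in 1536-well plates, dosed by pin tool the next day, and fixed and stained after 5 days in one step with final 0.05% Triton X-100, 1% formaldehyde and 1 ug/ml Hoechst. Dosing was a single drug or a fixed anchor-drug dose plus five library-drug doses (not always all listed) in √10 steps, and values are medians of duplicate plates imaged at 4×.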

[3] = compound: COc1cc2ncn(-c3cc(OCc4ccccc4C(F)(F)F)c(C(N)=O)s3)c2cc1OC + CC(=O)Nc1cccc(-n2c(=O)n(C3CC3)c(=O)c3c(Nc4ccc(I)cc4F)n(C)c(=O)c(C)c32)c1 [Trametinib] (partner 0.02 µM)
Method in brief: as §1

[4] = compound: COc1cc2ncn(-c3cc(OCc4ccccc4C(F)(F)F)c(C(N)=O)s3)c2cc1OC + NC(=O)Nc1cc(-c2cccc(F)c2)sc1C(=O)N[C@H]1CCCNC1 [AZD7762] (partner 0.2 µM)
Method in brief: as §1

Row | Cell Line | relative viability ([1]; 0.05 µM) | relative viability ([1]; 0.1581 µM) | relative viability ([1]; 0.5 µM) | relative viability ([1]; 1.581 µM) | relative viability ([1]; 5 µM) | relative viability ([2]; first compound 0.05 µM) | relative viability ([2]; first compound 0.1581 µM) | relative viability ([2]; first compound 0.5 µM) | relative viability ([2]; first compound 5 µM) | relative viability ([3]; first compound 0.05 µM) | relative viability ([3]; first compound 0.1581 µM) | relative viability ([3]; first compound 0.5 µM) | relative viability ([3]; first compound 1.581 µM) | relative viability ([3]; first compound 5 µM) | relative viability ([4]; first compound 0.05 µM) | relative viability ([4]; first compound 0.1581 µM) | relative viability ([4]; first compound 0.5 µM) | relative viability ([4]; first compound 1.581 µM) | relative viability ([4]; first compound 5 µM) | relative viability ([2]; first compound 1.581 µM)
1 | H3255 | 0.971 | 0.947 | 0.866 | 0.398 | 0.608 | 0.563 | 0.722 | 0.451 | 0.41 | 0.609 | 0.545 | 0.568 | 0.411 | 0.301 | 0.946 | 0.922 | 0.625 | 0.395 | 0.324 | 
2 | EPLC-272H | 0.615 | 0.946 | 0.269 | 0.124 | 0.101 |  | 0.306 | 0.169 | 0.147 | 0.285 | 0.234 | 0.216 | 0.154 | 0.163 | 0.191 | 0.334 | 0.247 | 0.107 | 0.13 | 0.148
3 | RERF-LC-KJ | 0.987 | 1.07 | 0.584 | 0.297 | 0.471 | 0.476 | 0.646 | 0.247 | 0.257 | 0.935 | 0.915 | 0.57 | 0.456 | 0.5 | 1.01 | 1.59 | 0.849 | 0.761 | 0.814 | 0.248
4 | NCI-H1793 | 1.08 | 1.12 | 0.568 | 0.208 | 0.191 | 0.34 | 0.296 | 0.292 | 0.191 | 0.253 | 0.371 | 0.373 | 0.298 | 0.185 | 0.463 | 0.407 | 0.301 | 0.148 | 0.103 | 0.239
5 | EKVX | 1.02 | 0.99 | 0.77 | 0.394 | 0.629 | 0.371 | 0.408 | 0.311 | 0.229 | 0.36 | 0.307 | 0.365 | 0.173 | 0.201 | 0.841 | 0.48 | 0.655 | 0.416 | 0.33 | 
6 | ChaGo-K-1 | 1.04 | 0.991 | 0.948 | 0.335 | 0.2 | 0.212 | 0.219 | 0.197 | 0.184 | 1.01 | 0.907 | 0.661 | 0.267 | 0.194 | 0.896 | 0.853 | 0.882 | 0.237 | 0.16 | 0.251
7 | NCI-H23 | 0.999 | 0.635 | 0.348 | 0.151 | 0.115 | 0.349 | 0.269 | 0.218 | 0.13 | 0.29 | 0.271 | 0.198 | 0.123 | 0.0957 | 0.196 | 0.261 | 0.199 | 0.0923 | 0.0935 | 0.166
8 | EMC-BAC-2 | 1.29 | 1.06 | 0.805 | 0.435 | 0.239 | 0.332 | 0.314 | 0.223 | 0.245 | 0.977 | 0.689 | 0.872 | 0.629 | 0.298 | 1.18 | 1.21 | 1.08 | 0.357 | 0.223 | 0.215
9 | LOU-NH91 | 0.97 | 1.03 | 0.801 | 0.455 | 0.531 | 0.653 | 0.641 | 0.399 | 0.31 | 0.783 | 0.776 | 0.719 | 0.52 | 0.295 | 0.774 | 0.818 | 0.638 | 0.41 | 0.277 | 0.29
10 | LU99A | 0.894 | 1.08 | 0.681 | 0.253 | 0.203 | 0.224 | 0.246 | 0.247 | 0.246 | 0.589 | 0.236 | 0.343 | 0.171 | 0.128 | 0.306 | 0.385 | 0.226 | 0.132 | 0.0907 | 0.241
11 | NCI-H1395 | 0.964 | 0.925 | 0.68 | 0.4 | 0.314 | 0.774 | 0.898 | 0.636 | 0.343 | 1.11 | 0.977 | 0.828 | 0.39 | 0.287 | 0.454 | 0.396 | 0.377 | 0.323 | 0.316 | 0.36
12 | NCI-H460 | 0.986 | 0.946 | 0.603 | 0.0622 | 0.0847 | 0.497 | 0.294 | 0.0449 | 0.0337 | 0.247 | 0.101 | 0.102 | 0.0172 | 0.0148 | 0.63 | 0.654 | 0.554 | 0.0553 | 0.0434 | 0.0359
13 | 201T | 0.994 | 1.02 | 0.995 | 0.377 | 0.294 | 1.03 | 1.09 | 0.809 | 0.324 | 0.707 | 0.728 | 0.691 | 0.647 | 0.301 | 0.642 | 0.668 | 0.554 | 0.442 | 0.242 | 0.426
14 | NCI-H1944 | 1.18 | 1.03 | 0.707 | 0.23 | 0.141 | 0.297 | 0.3 | 0.274 | 0.216 | 0.413 | 0.42 | 0.337 | 0.189 | 0.123 | 0.546 | 0.545 | 0.426 | 0.168 | 0.0968 | 0.23
15 | NCI-H2405 | 1.13 | 0.769 | 0.665 | 0.428 | 0.351 | 0.88 | 0.803 | 0.368 | 0.327 | 0.672 | 0.412 | 0.47 | 0.367 | 0.311 | 0.793 | 0.703 | 0.446 | 0.262 | 0.263 | 0.325
16 | NCI-H1703 | 1.1 | 0.886 | 0.52 | 0.148 | 0.194 |  |  |  |  |  |  |  |  |  | 0.141 | 0.131 | 0.104 | 0.119 | 0.104 | 
